Source: PMC3961306, “Comparison of the Cancer Gene Targeting and Biochemical Selectivities of All Targeted Kinase Inhibitors Approved for Clinical Use” (PLoS ONE, 2014)
pIC50: −log10 of the molar value. Read-outs that look alike come from different tables or passages of the source.

What was measured:
[1] = system: forty-four human cancer cell lines; assay: Cell proliferation assay (ATPlite, 72 hours) in the 44 cell line Oncolines panel; format: cell-based; conditions: Homo sapiens
[2] = target: panel of more than 300 wild-type and mutant kinases (313 kinase panel) (Homo sapiens, UniProt P07947, T348I); assay: Kinase profiling in a biochemical assay panel (mobility shift assays and ELISA), %-inhibition at 1 μM; selectivity entropy; conditions: kinase YES(T348I); compound at 1 μM
[3] = target: panel of more than 300 wild-type and mutant kinases (313 kinase panel) (Homo sapiens, UniProt P09619); assay: as above; conditions: kinase PDGFRβ; 1 μM
[4] = target: panel of more than 300 wild-type and mutant kinases (313 kinase panel) (Homo sapiens, UniProt P11362, V561M); assay: as above; conditions: kinase FGFR1(V561M); compound at 1 μM
[5] = target: panel of more than 300 wild-type and mutant kinases (313 kinase panel) (Homo sapiens, UniProt P15056); assay: as above; conditions: kinase BRAF; 1 μM compound
[6] = target: panel of more than 300 wild-type and mutant kinases (313 kinase panel) (Homo sapiens, UniProt P15056, V600E); assay: as above; conditions: kinase BRAF(V600E); 1 μM compound
[7] = target: panel of more than 300 wild-type and mutant kinases (313 kinase panel) (Homo sapiens, UniProt P22612); assay: as above; conditions: kinase PKACγ; 1 μM
[8] = 4-4 cell, read-out: cell panel IC50, J82
[9] = 4-4 cell, read-out: cell panel IC50, SJCRH30
[10] = 4-4 cell, read-out: cell panel IC50, SR
[11] = 769-P, read-out: cell panel IC50, 769-P
[12] = 786-0, read-out: cell panel IC50, 786-0
[13] = A204, read-out: cell panel IC50, A-204
[14] = A498, read-out: cell panel IC50, A-498
[15] = A549, read-out: cell panel IC50, A-549
[16] = A-375, read-out: cell panel IC50, A375
[17] = A-427, read-out: cell panel IC50, A-427
[18] = ACHN, read-out: cell panel IC50, ACHN
[19] = AN3-CA, read-out: cell panel IC50, AN3 CA
[20] = AU565, read-out: cell panel IC50, AU-565
[21] = BT-20, read-out: cell panel IC50, BT-20
[22] = BT-549, read-out: cell panel IC50, BT-549
[23] = BXPC-3, read-out: cell panel IC50, BxPC-3
[24] = C-33-A, read-out: cell panel IC50, C-33 A
[25] = CAL-27, read-out: cell panel IC50, CAL 27
[26] = CCRF-CEM, read-out: cell panel IC50, CCRF-CEM
[27] = DLD-1, read-out: cell panel IC50, DLD-1
[28] = FaDu, read-out: cell panel IC50, FaDu
[29] = HCT-15, read-out: cell panel IC50, HCT-15
[30] = HCT-116, read-out: cell panel IC50, HCT-116
[31] = Hs-578T, read-out: cell panel IC50, Hs 578T
[32] = Jurkat E6.1, read-out: cell panel IC50, Jurkat E6.1
[33] = K562, read-out: cell panel IC50, K-562
[34] = LS174T, read-out: cell panel IC50, LS 174T
[35] = LoVo, read-out: cell panel IC50, LoVo
[36] = MG-63, read-out: cell panel IC50, MG-63
[37] = MOLT-4, read-out: cell panel IC50, MOLT-4
[38] = NCI-H82, read-out: cell panel IC50, NCI-H82
[39] = NCI-H460, read-out: cell panel IC50, NCI-H460
[40] = OVCAR-3, read-out: cell panel IC50, OVCAR-3
[41] = RPMI-7951, read-out: cell panel IC50, RPMI-7951
[42] = SHP77, read-out: cell panel IC50, SHP-77
[43] = SK-N-AS, read-out: cell panel IC50, SK-N-AS
[44] = SW48, read-out: cell panel IC50, SW48
[45] = SW480, read-out: cell panel IC50, SW480
[46] = SW-620, read-out: cell panel IC50, SW620
[47] = U2OS, read-out: cell panel IC50, U-2 OS
[48] = U-87 MG, 72 h, read-out: IC50 in cell proliferation assay (table S5 cellpanel data)

C[C@@H](Oc1cc(-c2cnn(C3CCNCC3)c2)cnc1N)c1c(Cl)ccc(F)c1Cl [crizotinib]
pIC50 [1, 8]: 5.28 | pIC50 ([1]; 4-4 cell, read-out: cell panel IC50, PA-1): 6.05 | pIC50 [1, 9]: 5.96 | pIC50 [1, 10]: 7.36 | pIC50 [1, 11]: 5.53 | pIC50 [1, 12]: 5.41 | pIC50 ([1]; A 172, read-out: cell panel IC50, A-172): 5.77 | pIC50 [1, 13]: 5.61 | pIC50 [1, 14]: 5.65 | pIC50 [1, 15]: 5.93 | pIC50 [1, 16]: 5.97 | pIC50 [1, 17]: 6.17 | pIC50 [1, 18]: 5.65 | pIC50 [1, 19]: 5.77 | pIC50 [1, 20]: 5.11 | pIC50 [1, 21]: 4.89 | pIC50 [1, 22]: 5.31 | pIC50 [1, 23]: 5.86 | pIC50 [1, 24]: 5.52 | pIC50 [1, 25]: 5.74 | pIC50 [1, 26]: 6.25 | pIC50 [1, 27]: 5.52 | pIC50 [1, 28]: 5.27 | pIC50 [1, 29]: 5.32 | pIC50 [1, 30]: 5.77 | pIC50 [1, 31]: 5.56 | pIC50 [1, 32]: 5.95 | pIC50 [1, 33]: 6.60 | pIC50 [1, 34]: 6.07 | pIC50 [1, 35]: 6.18 | pIC50 [1, 36]: 5.76 | pIC50 [1, 37]: 6.46 | pIC50 [1, 38]: 6.07 | pIC50 [1, 39]: 5.94 | pIC50 [1, 40]: 5.34 | pIC50 [1, 41]: 5.82 | pIC50 [1, 42]: 5.51 | pIC50 [1, 43]: 5.88 | pIC50 [1, 44]: 5.71 | pIC50 [1, 45]: 5.44 | pIC50 [1, 46]: 5.88 | pIC50 [1, 47]: 5.70 | pIC50 [1, 48]: 5.41 | %-inhibition of YES(T348I) [2]: 93% | %-inhibition of PDGFRβ [3]: 18% | %-inhibition of FGFR1(V561M) [4]: 26% | %-inhibition, BRAF [5]: 12% | %-inhibition, BRAF(V600E) [6]: 10% | %-inhibition of PKACγ [7]: -6.52%

COc1cc2c(Nc3ccc(Br)cc3F)ncnc2cc1OCC1CCN(C)CC1 [vandetanib]
pIC50 [1, 8]: 5.29 | pIC50 [1, 9]: 5.40 | pIC50 [1, 10]: 5.38 | pIC50 [1, 11]: 5.91 | pIC50 [1, 12]: 5.36 | pIC50 [1, 13]: 5.60 | pIC50 [1, 14]: 5.48 | pIC50 [1, 15]: 5.26 | pIC50 [1, 16]: 5.49 | pIC50 [1, 17]: 5.59 | pIC50 [1, 18]: 5.64 | pIC50 [1, 19]: 6.31 | pIC50 [1, 20]: 5.45 | pIC50 [1, 21]: 4.83 | pIC50 [1, 22]: 5.00 | pIC50 [1, 23]: 5.68 | pIC50 [1, 24]: 6.19 | pIC50 [1, 25]: 6.00 | pIC50 [1, 26]: 5.18 | pIC50 [1, 27]: 5.22 | pIC50 [1, 28]: 5.89 | pIC50 [1, 29]: 5.13 | pIC50 [1, 30]: 5.03 | pIC50 [1, 31]: 5.41 | pIC50 [1, 32]: 5.40 | pIC50 [1, 33]: 6.04 | pIC50 [1, 34]: 5.55 | pIC50 [1, 35]: 5.84 | pIC50 [1, 36]: 5.19 | pIC50 [1, 37]: 5.47 | pIC50 ([1]; MeWo, read-out: cell panel IC50, MeWo): 5.26 | pIC50 [1, 38]: 5.14 | pIC50 [1, 39]: 4.92 | pIC50 [1, 40]: 5.51 | pIC50 [1, 41]: 5.38 | pIC50 [1, 42]: 4.84 | pIC50 [1, 43]: 5.37 | pIC50 [1, 44]: < 4.50 | pIC50 [1, 45]: 4.86 | pIC50 [1, 46]: 4.79 | pIC50 [1, 47]: 5.39 | pIC50 [1, 48]: 5.13 | %-inhibition of YES(T348I) [2]: 100% | %-inhibition, BRAF [5]: 24% | %-inhibition, BRAF(V600E) [6]: 18% | %-inhibition of PKACγ [7]: 6%
